Measurements as given in patent US7371768B2, “Pyrazol derivatives, pest control agent comprising the same as active ingredient, and process for producing the same” (Nihon Nohyaku Co., Ltd., priority 2000, dated 2008).
Read-outs that look alike come from different tables or passages of the source.

Columns and labels:
Nilaparvata lugens [1] = assay: Insecticidal effect on larvae of brown rice planthopper through systemic activity (root uptake); format: in vivo; settings: for Death rate (%) 0.8 ppm: 0.8 ppm agent solution at rice roots; for Death rate (%) 0.8 ppm / Death rate (%) 3.1 ppm: larvae placed after 3 days, 4th day, 25° C.; for Death rate (%) 3.1 ppm: 3.1 ppm agent solution at rice roots; for insecticidal activity through systemic property, in words: summary of Table 6
Protocol: Roots of young rice seedlings (height: about 10 cm) planted in a plastic cup were washed with water and soil was washed away so as not to damage the fine roots. The stem was pinched by a urethane tip (diameter: 3 cm, height: 2 cm) having a cut line and the roots were inserted into an Erlenmeyer flask to which 50 ml of an agent solution (an aqueous dilution of the agricultural and horticultural insecticide of the present invention prepared in accordance with Formulation Example 1) was placed beforehand (2 to 3 young rice seedlings/flask). The urethane chip was wedged into the mouse of the flask to fix the rice seedlings. A glass tube (diameter: 3 cm, height: 5 cm) was placed thereon, wedged into the urethane chip, and fixed with a tape. The flask in such state was kept in a constant temperature room at 25° C. for 3 days. Five larvae of Nilaparvata lugens were placed in the glass tube and then the tube was capped with a urethane chip, followed by keeping in the constant temperature room at 25° C. (duplicates at a concentration). The mortality and agony of the larvae were investigated on 4th day after the treatment to obtain a death rate (%) taking an agonizing insect as a ½ dead insect. This test was carried out on two agent solutions different in the concentration of the active ingredient. The results are shown in Table 6 (the compound numbers in the table correspond to the numbers in Table 1).
Additionally, as reference compounds, Compounds I, II and III described in JP-A-10-338676 were similarly tested.

[2] = test system: Chinese hamster lung fibroblast line V79; assay: In vitro intercellular metabolic cooperation inhibition test (IMC); format: cell-based
Protocol: In this Test Example, using an inhibitory action of gap-junctional intercellular communication as an index, the existence of carcinogenicity (tumor-promoting action) of a compound was investigated.
In this test, a mixed culture system of Chinese hamster lung fibroblast line V79 (hgprt+) having hypoxanthine-guanine phosphoribosyltransferase activity and cells having no such activity (hgprt−) was treated by adding thereto the following compounds together with 6-thioguanine (6-TG). When the intercellular communication is normal, the toxic metabolite of 6-TG formed in hgprt+ cells (6-TG sensitive) is transferred into hgprt− cells (6-TG resistant) through gap junction, so that both of the cells die. On the other hand, when the intracellular communication is inhibited by the test compound, only the hgprt− cells survive and form colonies.

Nilaparvata lugens [3] = assay: Insecticidal effect on larvae of brown rice planthopper, spray test; format: in vivo; settings: 500 ppm, sprayed, 4th instar larvae, 25° C., after 5 days; agonizing insect counted as 1/2 dead
Protocol: A rice seedling was planted in a glass cylinder (inner diameter: 3 cm×length: 17 cm), and five 4th instar larvae of Nilaparvata lugens were set free therein. An agricultural and horticultural insecticide of the present invention was prepared in accordance with Formulation Example 3 and diluted with water, and 0.5 ml of the resulting dilution was sprayed into the above glass cylinder with a spraying tower (manufactured by Mizuho Rika) (duplicates at a concentration). The cylinder was kept in a constant temperature room at 25° C., and the mortality and agony of the larvae were investigated after 5 days from the treatment to obtain a death rate (%) taking an agonizing insect as a ½ dead insect. The results obtained are shown in Table 2 (the compound numbers in the table correspond to the numbers in Table 1).

Plutella xylostella = assay: Insecticidal effect on larvae of diamond back moth, cabbage leaf disc dip; format: in vivo; settings: 500 ppm, 3-instar larvae, 25° C., after 4 days, agonizing insect counted as 1/2 dead
Protocol: A disc (diameter: 6 cm) cut out of a cabbage leaf was for 1 minute in an aqueous dilution of the agricultural and horticultural insecticide of the present invention prepared in accordance with Formulation Example 1, then air-dried, and placed in a plastic cup (inner diameter: 7 cm). Five 3-instar larvae of Plutella xylostella were set free in the cup (duplicates at a concentration). The cup was kept in a constant temperature room at 25° C., and the death and agony of the larvae were investigated after 4 days from the treatment to obtain a death rate (%) taking an agonizing insect as a ½ dead insect. The results are shown in Table 3 (the compound numbers in the following table below correspond to the numbers in Table 1).

Callosobruchus chinensis = assay: Insecticidal effect on imagoes of adzuki bean weevil, spray test; format: in vivo; settings: 500 ppm, sprayed, 25° C., after 4 days, agonizing insect counted as 1/2 dead
Protocol: Two adzuki beans were put in a glass cylinder (inner diameter: 3 cm×length: 15 cm), and 10 imagoes of Callosobruchus chinensis were set free therein. An agricutural and horticultural insecticide of the present invention was prepared in accordance with Formulation and diluted with water, and 0.3 ml of the resulting dilution was sprayed in the above glass cylinder with a spray tower (manufactured by Mizuho Rika) (duplicates at a concentration). The cylinder was kept in temperature room at 25° C., and the mortality and agony of thee larvae were investigated after 4 days from the treatment to obtain a death rate (%) taking an agonizing insect as a ½ dead insect. The results obtained are shown in Table 4 (the compound numbers in the table correspond to the numbers in Table 1).

Myzus persicae = assay: Insecticidal effect on larvae of green peach aphid, leaf soak; format: in vivo; settings: 500 ppm, leaves soaked about 5 seconds, 25° C., 4th day after treatment
Protocol: Water was put in a screw bottle (volume: 10 ml), and a leaftalk of Japanese radish was placed therein and then inoculated with 5 to 6 insects of Myzus persicae per leave. After the inoculation, the bottle was put in a glass cylinder (diameter: 3.5 cm; height: 15 cm, with a mesh cover), and the insects were let to proliferate in a constant temperature room kept at 25° C. for 3 days. The imagoes on the leaves were removed, and the leaves were soaked in an aqueous dilution of an agricultural and horticultural insecticide of the present invention prepared in accordance with Formulation Example 3 (for about 5 seconds) and then returned into the glass cylinder (duplicates at a concentration). The cylinder was kept in the constant temperature room at 25° C., and the number of the insects on the leaves was counted on the 4th day after the treatment to obtain a death rate (%) based on the results. The results obtained are shown in Table 5 (the compound numbers in the table correspond to the numbers in Table 1).

Cat Flea = assay: Insecticidal effect on cat flea, treated filter; format: in vivo; settings: 0.7 mg/filter; mortality investigated on 1st day and 2nd day after treatment
Protocol: Onto a round filter (diameter: 10 cm) was added dropwise 0.7 ml of an agent solution diluted to a predetermined concentration. After drying, the filter was placed on the bottom of a cylinder (diameter: 10 cm×height: 30 cm). Ten fleas were set free therein and the mortality was investigated on 1st day and 2nd day after the treatment to calculate a death rate (%) based on the results. The results are shown in Table 7 (the compound numbers in the table correspond to the numbers in Table 1).

Structure (SMILES) | Death rate (%) 0.8 ppm (Nilaparvata lugens [1]) | Death rate (%) 3.1 ppm (Nilaparvata lugens [1]) | insecticidal activity through systemic property, in words (Nilaparvata lugens [1]) | IMC test result (inhibition of gap-junctional intercellular communication, index of tumor-promoting action) [2] | colony forming rate ([2]; at 7.5 and 15 μg/ml, V79 hgprt+/hgprt- mixed culture with 6-thioguanine) | Death rate (%) (Nilaparvata lugens [3]) | Death rate (%) (Plutella xylostella) | Death rate (%) (Callosobruchus chinensis) | Death rate (%) (Myzus persicae) | IMC test result (inhibition of gap-junctional intercellular communication, index of tumor-promoting action) ([2]; V79 hgprt+/hgprt- mixed culture with 6-thioguanine) | Death rate (%) (Cat Flea)
CSc1c(C#N)nn(-c2c(Cl)cc(C(F)(F)F)cc2Cl)c1NCc1ccncc1 [Compound I] | 100% | 100% | insecticidal activity through a high systemic property | positive | significant increase | – | – | – | – | – | –
N#Cc1nn(-c2c(Cl)cc(C(F)(F)F)cc2Cl)c(NCc2ccncc2)c1SCF [Compound No. 1, 1-(2,6-dichloro-4-trifluoromethylphenyl)-4-fluoromethylthio-5-(pyridin-4-ylmethylamino)pyrazole-3-carbonitrile] | 100% | 100% | – | – | – | 100% | 100% | 100% | 100% | – | –
N#Cc1nn(-c2c(Cl)cc(C(F)(F)F)cc2Cl)c(NCc2ccccn2)c1SC(F)F [Compound No. 2, 1-(2,6-dichloro-4-trifluoromethylphenyl)-4-difluoromethylthio-5-(pyridin-2-ylmethylamino)pyrazole-3-carbonitrile] | 100% | 100% | – | – | – | 100% | 100% | 100% | 100% | negative | 100%
N#Cc1nn(-c2c(Cl)cc(C(F)(F)F)cc2Cl)c(NCc2ccccn2)c1SC(F)(F)F [III] | 0% | 0% | obviously inferior effect | – | – | – | – | – | – | – | –
N#Cc1nn(-c2c(Cl)cc(C(F)(F)F)cc2Cl)c(NCc2ccncc2)c1SC(F)(F)F [II] | 20% | 50% | obviously inferior effect | – | – | – | – | – | – | – | –
